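Values below derive from 48-hour exposures of cells grown in 96-well plates, with endpoints linearly interpolated between the two concentrations bracketing the appropriate inhibition level. GI50: concentration for 50% inhibition of growth.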 Calls of active or inactive are those of the source. Rule as the data show it: active = GI50 up to about 1.1 µM and inactive = higher. A value given as a limit tells only on which side of the number the result lay.

Among the test systems are DMS-273; XF498; DMS-114; SNB-78; DLD-1; KM-20L2; LXFL 529; HOP-18; RXF 631.
What all share (experiment): NCI-60 cell line screen, 48 h

For `CCCCCCCCCC1CC(=O)OC23CCCC(=O)C12O3` (stereo not drawn), the GI50 was > 100 µM (inactive) with DMS-273; > 100 µM (inactive) in the assay with XF498; 71.6 µM (inactive) in the assay with DMS-114; 60.8 µM (inactive) with SNB-78; 98.6 µM (inactive) in the assay with DLD-1; > 100 µM (inactive) in the assay with KM-20L2. For the same compound, the GI50 in the assay on LXFL 529 was > 100 µM (inactive); in the assay with HOP-18, 62.5 µM (inactive).
Consider `O=S(=O)(c1ccccc1)C1CN2OC1(S(=O)(=O)c1ccccc1)CC21CCCCC1` (stereo not drawn), for which the GI50 in the assay on DMS-273 was 82.6 µM (inactive); in the assay with XF498, 32.3 µM (inactive); with DMS-114, > 100 µM (inactive); with DLD-1, > 100 µM (inactive); in the assay on RXF 631, > 100 µM (inactive); with KM-20L2, > 100 µM (inactive). Further, the GI50 in the assay on LXFL 529 was > 100 µM (inactive).
As to `CC(C)(C)C1CCC(CI)(N=[N+]=[N-])CC1` (stereo not drawn), the GI50 in the assay with DMS-273 was > 100 µM (inactive); with XF498 it was 42.5 µM (inactive); with DMS-114 it was > 100 µM (inactive); with SNB-78, > 100 µM (inactive); in the assay with DLD-1 it was > 100 µM (inactive); with KM-20L2 it was > 100 µM (inactive). Also, the GI50 in the assay with LXFL 529 and in the assay on HOP-18 was > 100 µM (inactive) throughout.
On to `O=C(Nc1cccc([N+](=O)[O-])c1)/C(=N\NC(=O)c1ccncc1)c1nc2ccc([N+](=O)[O-])cc2nc1O`, for which the GI50 was 13.9 µM (inactive) in the assay with DMS-114, > 100 µM (inactive) in the assay on SNB-78, > 10 µM (inactive) in the assay on DLD-1 and 35.6 µM (inactive) in the assay on LXFL 529.
Take `Nc1ccccc1C(=O)C(Br)C(Br)c1ccc2c(c1)OCO2` (stereo not drawn): the GI50 with DMS-273 is 15.1 µM (inactive); in the assay with XF498, 16.7 µM (inactive); in the assay with DMS-114, 18.2 µM (inactive); in the assay on SNB-78, 24.3 µM (inactive); with DLD-1 it was 33.6 µM (inactive); in the assay on KM-20L2 it was 17.2 µM (inactive). For the same compound, the GI50 in the assay with LXFL 529 and in the assay with HOP-18 was 16.7 µM (inactive) throughout.
`O=C1OC(c2ccc(Cl)c3ccccc23)c2ccccc21` (stereo not drawn): the GI50 was > 100 µM (inactive) in the assay on XF498; 71.3 µM (inactive) in the assay with DMS-114; > 100 µM (inactive) in the assay with SNB-78; > 100 µM (inactive) with RXF 631; 64.3 µM (inactive) in the assay on KM-20L2; > 100 µM (inactive) with HOP-18.
Take `CC1=C2C(=O)C(C)(C)C=C2C(=O)[C@](C)(O)C12CC2` [DEHYDROILLUDIN M]: the GI50 in the assay on DMS-273 was 0.282 µM (active); in the assay with XF498, 0.664 µM (active); with SNB-78 it was 0.522 µM (active); with DLD-1, > 0.791 µM (active); with KM-20L2, 0.527 µM (active); with LXFL 529, 0.698 µM (active). Further, in the assay with HOP-18, the GI50 is > 1 µM (active).
Consider `COc1ccc2c(c1)CCC(OS(=O)(=O)CC13CCC(CC1=O)C3(C)C)C2=O` (stereo not drawn), for which the GI50 in the assay on DMS-273 is 26.4 µM (inactive); in the assay on XF498 it was 31.2 µM (inactive); in the assay on DMS-114, 27.5 µM (inactive); with DLD-1, 31.3 µM (inactive); with KM-20L2, 19.5 µM (inactive); with LXFL 529, 29.8 µM (inactive). Besides, in the assay with HOP-18, the GI50 was 30.1 µM (inactive).
On to `Cc1[nH]c(=O)nc(N/N=C/c2ccc(O)cc2)c1C(=O)Nc1ccc(Cl)cc1`, for which the GI50 in the assay with DMS-273, with DMS-114, in the assay with SNB-78, with DLD-1, with RXF 631 and in the assay on KM-20L2 was > 100 µM (inactive) each time. In addition, the GI50 in the assay with LXFL 529 and with HOP-18 was > 100 µM (inactive) throughout.
Regarding `N#CC(C(=O)/C(=N/NC(=O)c1ccccc1O)C(C#N)c1ccc(Cl)cc1)c1ccc(Cl)cc1` (stereo not drawn), the GI50 is 13.5 µM (inactive) with XF498; 23.8 µM (inactive) with DMS-114; 19.5 µM (inactive) in the assay with SNB-78; 11.9 µM (inactive) in the assay with DLD-1; 13.7 µM (inactive) in the assay on KM-20L2; 12.6 µM (inactive) with LXFL 529. Further, the GI50 in the assay with HOP-18 was 11.5 µM (inactive).
Regarding `NS(=O)(=O)OCCCCCCCOS(N)(=O)=O`, the GI50 in the assay on DMS-273 was 68.7 µM (inactive); with XF498 it was 54.8 µM (inactive); in the assay with DMS-114 it was 130 µM (inactive); in the assay with SNB-78, 526 µM (inactive); in the assay with DLD-1, 495 µM (inactive); with KM-20L2, 488 µM (inactive). Also, the GI50 in the assay with HOP-18 was 689 µM (inactive).
As for `CCN(CC)CCNc1ccc2nnn3c4ccc(C)cc4c(=O)c1c23`, the GI50 is 9.12 µM (inactive) in the assay on DMS-114; 10.9 µM (inactive) in the assay on SNB-78; 6.08 µM (inactive) with DLD-1; 5.28 µM (inactive) in the assay with RXF 631; 6.32 µM (inactive) in the assay on KM-20L2; 12 µM (inactive) with LXFL 529.
In the case of `COc1cc2c(cc1OC)C(CC(=O)NN=C(C)C)NCC2` (stereo not drawn), the GI50 was > 100 µM (inactive) with DMS-273; 96.6 µM (inactive) with XF498; > 100 µM (inactive) in the assay on DMS-114; > 100 µM (inactive) with SNB-78; > 100 µM (inactive) in the assay with DLD-1; > 100 µM (inactive) with KM-20L2. Also, the GI50 in the assay with LXFL 529 and in the assay with HOP-18 was > 100 µM (inactive) in each case.
In the case of `COc1ccccc1NC(=O)CC(=O)n1nc(C)c(/N=N/c2ccccc2F)c1C`, the GI50 in the assay on DMS-273 is > 100 µM (inactive); in the assay with XF498, 40 µM (inactive); with DMS-114, > 100 µM (inactive); with SNB-78, 17.3 µM (inactive); in the assay on DLD-1 it was > 100 µM (inactive); in the assay on KM-20L2 it was > 100 µM (inactive). Moreover, the GI50 in the assay with LXFL 529 and in the assay on HOP-18 was > 100 µM (inactive) in each case.
For the compound `NC(=O)c1cccc([N+](=O)[O-])c1`, the GI50 in the assay on DMS-273, with XF498, in the assay with DMS-114, in the assay on SNB-78, in the assay on DLD-1 and in the assay with KM-20L2 was > 100 µM (inactive) throughout. In the assay with LXFL 529, the GI50 is > 100 µM (inactive).
For `O=C1c2c(O)cccc2C(C(=O)CCCC(=O)C2c3cccc(O)c3C(=O)c3c(O)cccc32)c2cccc(O)c21`, the GI50 was 0.437 µM (active) in the assay with DMS-273; 0.0752 µM (active) in the assay with XF498; 0.116 µM (active) in the assay on DMS-114; 0.213 µM (active) in the assay on SNB-78; 0.388 µM (active) in the assay with DLD-1; 0.578 µM (active) in the assay on RXF 631. The figures for the GI50 with KM-20L2, with LXFL 529 and in the assay with HOP-18 were 1.19 µM (inactive), 0.139 µM (active) and 0.378 µM (active), respectively.
Turning to `Cn1cnnc1Sc1c([N+](=O)[O-])ncn1C`, the GI50 with DMS-273 is > 100 µM (inactive); with XF498 it was > 100 µM (inactive); in the assay with DMS-114 it was > 100 µM (inactive); in the assay on SNB-78, 45.9 µM (inactive); in the assay with DLD-1 it was 38.5 µM (inactive); in the assay with RXF 631, > 100 µM (inactive). The values for the GI50 with LXFL 529 and in the assay with HOP-18 were 20 µM (inactive) and 13.5 µM (inactive), respectively.
Take `N#CCCN(CCC#N)c1ccc(/C=C(/NC(=O)c2cc([N+](=O)[O-])ccc2Cl)C(=O)N=[N+]=[N-])cc1`: the GI50 in the assay with DMS-273, in the assay on DMS-114, in the assay on SNB-78, with DLD-1, with RXF 631 and in the assay on KM-20L2 was > 100 µM (inactive) throughout. Also, the GI50 in the assay on LXFL 529 and in the assay on HOP-18 was > 100 µM (inactive) throughout.
`CSc1ccc2c(cc1=O)C(NC(=O)c1ccccc1)CCc1cc(O)c(O)c(O)c1-2` (stereo not drawn): the GI50 with DMS-273 is 26.9 µM (inactive); in the assay on DMS-114, 26.2 µM (inactive); in the assay on SNB-78 it was 6.79 µM (inactive); with DLD-1, 16.7 µM (inactive); in the assay with KM-20L2, 1.81 µM (inactive); in the assay on LXFL 529, 23.4 µM (inactive). For the same compound, the GI50 with HOP-18 was > 100 µM (inactive).
With `COc1ccc2c(c1)C1C(CO2)C(c2ccccc2)=NN1c1ccccc1` (stereo not drawn), the GI50 in the assay with DMS-273, in the assay with XF498, in the assay on DMS-114, in the assay on SNB-78, in the assay with DLD-1 and in the assay with RXF 631 was > 100 µM (inactive) each time. The GI50 with KM-20L2, in the assay with LXFL 529 and in the assay on HOP-18 was > 100 µM (inactive) in each case.
Turning to `N#CC(C(=O)/C(=N\NC(N)=O)C(C#N)c1ccccc1)c1ccccc1` (stereo not drawn), the GI50 in the assay with DMS-273, with SNB-78, with DLD-1, with RXF 631, in the assay with KM-20L2 and in the assay with LXFL 529 was > 100 µM (inactive) each time.
Turning to `CCOc1ccc(/C=C(\Cl)c2ccc(OC)c(OC)c2)cc1`, the GI50 in the assay on DMS-273 is 22 µM (inactive); in the assay with XF498 it was > 100 µM (inactive); with DMS-114, 26.6 µM (inactive); with SNB-78, 89.5 µM (inactive); with DLD-1, 22.5 µM (inactive); in the assay with KM-20L2 it was 16.7 µM (inactive). The GI50 with LXFL 529 was 35.9 µM (inactive); with HOP-18 it was 57.9 µM (inactive).
On to `CNC(N)NC`, for which the GI50 in the assay on DMS-273, with XF498, in the assay on DMS-114, in the assay with SNB-78, in the assay with DLD-1 and in the assay with KM-20L2 was > 100 µM (inactive) each time. Also, the GI50 in the assay with LXFL 529 and with HOP-18 was > 100 µM (inactive) throughout.
For `c1ccc(CN(Cn2cccn2)Cn2cccn2)nc1`, the GI50 with DMS-273 is 61.7 µM (inactive); in the assay with XF498, > 100 µM (inactive); in the assay on DMS-114, 78.7 µM (inactive); in the assay on SNB-78, > 100 µM (inactive); in the assay with DLD-1 it was 87.3 µM (inactive); in the assay on RXF 631, > 100 µM (inactive). Besides, the GI50 in the assay with KM-20L2 and with LXFL 529 was > 100 µM (inactive) in each case.
Take `COc1cc(/C=C(\C#N)C(=O)c2ccccc2)ccc1O`: the GI50 in the assay with XF498, in the assay with SNB-78, in the assay with KM-20L2 and in the assay on LXFL 529 was > 100 µM (inactive) in each case.
For `COc1cc2c(cc1OC)C(O)[C@H](Br)C(C)(C)O2` (stereo partly drawn), the GI50 in the assay on DMS-273, with XF498, with DMS-114, in the assay with DLD-1, in the assay with KM-20L2 and with LXFL 529 was > 100 µM (inactive) in each case. Further, in the assay with HOP-18, the GI50 is > 100 µM (inactive).
